Measured values: the NIST ThermoML archive (doi:10.1021/je0501991)
Numbers after ± are expanded uncertainties.

How the values were obtained:
[1] = excess molar enthalpy (molar enthalpy of mixing); xn = mol fraction of the nth substance listed; details: 308.15 K, 101.33 kPa, Liquid
[2] = refractive index (Na D-line) (dimensionless); xn = mol fraction of the nth substance listed; details: 308.15 K, 101.33 kPa, Liquid, Standard Abbe refractometry
[3] = xn = mol fraction of the nth substance listed; details: 308.15 K, 101.33 kPa, Liquid
[4] = molar heat capacity at constant pressure; xn = mol fraction of the nth substance listed; details: 101.33 kPa, Liquid

OCCc1ccccc1 [2-phenylethanol] + C[S+](C)[O-]
Details	excess molar enthalpy [kcal/mol]	mass density [kg/m3]	refractive index	viscosity [mPa·s]
[1], x2 = 0.0655	-0.093 ± 0.00191	–	–	–
[1], x2 = 0.123	-0.15 ± 0.00287	–	–	–
[1], x2 = 0.1738	-0.185 ± 0.00359	–	–	–
[1], x2 = 0.219	-0.207 ± 0.00382	–	–	–
[1], x2 = 0.2961	-0.226 ± 0.0043	–	–	–
[1], x2 = 0.3593	-0.233 ± 0.0043	–	–	–
[1], x2 = 0.4569	-0.222 ± 0.00406	–	–	–
[1], x2 = 0.5286	-0.207 ± 0.00382	–	–	–
[1], x2 = 0.6273	-0.175 ± 0.00335	–	–	–
[1], x2 = 0.7163	-0.137 ± 0.00263	–	–	–
[1], x2 = 0.7709	-0.112 ± 0.00215	–	–	–
[1], x2 = 0.8347	-0.0825 ± 0.00167	–	–	–
[1], x2 = 0.8707	-0.0643 ± 0.00143	–	–	–
[1], x2 = 0.9099	-0.0459 ± 0.0012	–	–	–
[1], x2 = 0.9309	-0.0351 ± 0.000956	–	–	–
[1], x2 = 0.9528	-0.0234 ± 0.000717	–	–	–
[1], x2 = 0.9759	-0.012 ± 0.000478	–	–	–
[2], x2 = 0.0435	–	–	1.5257 ± 0.0007	–
[2], x2 = 0.1521	–	–	1.5224 ± 0.0007	–
[2], x2 = 0.2758	–	–	1.5179 ± 0.0007	–
[2], x2 = 0.3564	–	–	1.5145 ± 0.0007	–
[2], x2 = 0.4566	–	–	1.5099 ± 0.0007	–
[2], x2 = 0.5477	–	–	1.5052 ± 0.0007	–
[2], x2 = 0.6247	–	–	1.5008 ± 0.0007	–
[2], x2 = 0.7102	–	–	1.4956 ± 0.0007	–
[2], x2 = 0.7707	–	–	1.4916 ± 0.0007	–
[2], x2 = 0.8346	–	–	1.487 ± 0.0007	–
[2], x2 = 0.8653	–	–	1.4846 ± 0.0007	–
[2], x2 = 0.9433	–	–	1.4783 ± 0.0007	–
[3], x2 = 0.0435	–	1011.25 ± 0.53	–	7.049 ± 0.11
[3], x2 = 0.1521	–	1017.45 ± 0.49	–	6.133 ± 0.097
[3], x2 = 0.2758	–	1024.6 ± 0.44	–	5.162 ± 0.081
[3], x2 = 0.3564	–	1029.49 ± 0.42	–	4.611 ± 0.072
[3], x2 = 0.4566	–	1035.91 ± 0.39	–	3.976 ± 0.062
[3], x2 = 0.5477	–	1042.18 ± 0.37	–	3.446 ± 0.053
[3], x2 = 0.6247	–	1047.95 ± 0.35	–	3.052 ± 0.046
[3], x2 = 0.7102	–	1054.95 ± 0.34	–	2.652 ± 0.04
[3], x2 = 0.7707	–	1060.33 ± 0.33	–	2.398 ± 0.036
[3], x2 = 0.8346	–	1066.5 ± 0.33	–	2.157 ± 0.032
[3], x2 = 0.8653	–	1069.64 ± 0.33	–	2.056 ± 0.031
[3], x2 = 0.9433	–	1078.31 ± 0.33	–	1.806 ± 0.027

molar heat capacity at constant pressure [J/K/mol], [4]
Details	298.15 K	308.15 K	318.15 K
x2 = 0	239.6 ± 19	245.3 ± 20	251.6 ± 20
x2 = 0.08581	235 ± 19	240.8 ± 19	246.5 ± 20
x2 = 0.1638	218.3 ± 18	223.2 ± 18	228.7 ± 18
x2 = 0.2999	190.7 ± 15	194.2 ± 16	198.1 ± 16
x2 = 0.4205	185 ± 15	188.4 ± 15	191.3 ± 15
x2 = 0.519	185.5 ± 15	188.2 ± 15	190.7 ± 15
x2 = 0.6293	169.3 ± 14	171.3 ± 14	173.6 ± 14
x2 = 0.6713	171 ± 14	172.8 ± 14	174.9 ± 14
x2 = 0.7066	162.6 ± 13	164.6 ± 13	166.5 ± 13
x2 = 0.7919	162.7 ± 13	164.8 ± 13	166.8 ± 13
x2 = 0.8596	156.2 ± 12	157.3 ± 13	159.1 ± 13
x2 = 0.937	157.8 ± 13	159.6 ± 13	160 ± 13
x2 = 0.9688	143.5 ± 12	144.8 ± 12	145.9 ± 12
